Reference: PubChem BioAssay (NCI)
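Tested at 5 concentrations; 48 h exposure; 96-well plates; endpoints linearly interpolated, else capped at highest concentration. GI50 marks 50% less growth. TGI: concentration producing complete growth inhibition.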

Legend:
Assay in all cases: NCI-60 cell line screen, 48 h
[1] = test system: DU-145 prostate
[2] = test system: SF-268 CNS
[3] = test system: BT-549 breast
[4] = test system: SF-295 CNS
[5] = test system: HOP-62 NSCLC
[6] = test system: TK-10 renal
[7] = test system: OVCAR-8 ovarian
[8] = test system: CCRF-CEM leukemia
[9] = test system: A498 renal
[10] = test system: SK-MEL-28 melanoma
[11] = test system: SF-539 CNS
[12] = test system: ACHN renal
[13] = test system: EKVX NSCLC
[14] = test system: MDA-MB-231 breast
[15] = test system: UACC-62 melanoma
[16] = test system: LOX IMVI melanoma
[17] = test system: SN12C renal
[18] = test system: RXF 393 renal
[19] = test system: SR leukemia
[20] = test system: U251 CNS
[21] = test system: UO-31 renal
[22] = test system: CAKI-1 renal
[23] = test system: MALME-3M melanoma
[24] = test system: HT29 colon
[25] = test system: HOP-92 NSCLC
[26] = test system: SK-MEL-2 melanoma
[27] = test system: SNB-19 CNS
[28] = test system: NCI-H226 lung
[29] = test system: MDA-MB-435
[30] = test system: HCT-15 colon
[31] = test system: HCT-116 colon
[32] = test system: SNB-75 CNS
[33] = test system: 786-0 renal
[34] = test system: NCI/ADR-RES ovarian
[35] = test system: MCF7 breast
[36] = test system: SK-OV-3 ovarian
[37] = test system: HL-60(TB) leukemia
[38] = test system: A549 NSCLC
[39] = test system: COLO 205 colon
[40] = test system: M14 melanoma
[41] = test system: HCC-2998 colon
[42] = test system: NCI-H23 lung
[43] = test system: NCI-H522 lung
[44] = test system: UACC-257 melanoma
[45] = test system: MOLT-4 leukemia
[46] = test system: SK-MEL-5 melanoma
[47] = test system: NCI-H460 lung
[48] = test system: OVCAR-4 ovarian
[49] = test system: K-562 leukemia
[50] = test system: OVCAR-3 ovarian
[51] = test system: KM12 colon
[52] = test system: SW-620 colon
[53] = test system: PC-3 prostate
[54] = test system: RPMI-8226 leukemia
[55] = test system: T-47D breast
[56] = test system: OVCAR-5 ovarian

In the case of `CCCCCCNC(=O)Nc1ccc2cc3ccc(NC(=O)NCCCCCC)cc3nc2c1`, the GI50 [1] is reported as 2 µM, the TGI [1] is reported as > 100 µM and the GI50 [2] is reported as 1.2 µM. The TGI [2] was 2.96 µM, the GI50 [3] was 4.09 µM and the TGI [3] was > 100 µM. For the same compound, the GI50 [4] was 2.32 µM, the TGI [4] was 6.04 µM and the GI50 [5] was 1.81 µM. For the same compound, the TGI [5] was 4.88 µM, the GI50 [6] was 23.5 µM and the TGI [6] was > 100 µM. It also gave a GI50 [7] of 0.614 µM, a TGI [7] of 2.88 µM and a GI50 [8] of 0.258 µM. The TGI [8] was 0.714 µM, the GI50 [9] was 1.88 µM and the TGI [9] was > 28.7 µM. For the same compound, the GI50 [10] was 1.72 µM, the TGI [10] was 3.14 µM and the GI50 [11] was 1.58 µM. For the same compound, the TGI [11] was 3 µM, the GI50 [12] was 43.5 µM and the TGI [12] was > 100 µM. The GI50 [13] was 5.79 µM, the TGI [13] was > 100 µM and the GI50 [14] was 1.54 µM. The TGI [14] was 3.11 µM, the GI50 [15] was 1.21 µM and the TGI [15] was 2.53 µM. For the same compound, the GI50 [16] was 0.268 µM, the TGI [16] was 0.737 µM and the GI50 [17] was 1.08 µM. For the same compound, the TGI [17] was 2.51 µM, the GI50 [18] was 1.4 µM and the TGI [18] was 5.51 µM. The GI50 [19] was 0.284 µM, the TGI [19] was 1.27 µM and the GI50 [20] was 0.336 µM. The TGI [20] was 1.29 µM, the GI50 [21] was > 100 µM and the TGI [21] was > 100 µM. The GI50 [22] was > 26.5 µM, the TGI [22] was > 100 µM and the GI50 [23] was 1.63 µM. The TGI [23] was 3.12 µM, the GI50 [24] was 2.24 µM and the TGI [24] was > 100 µM. For the same compound, the GI50 [25] was 1.67 µM, the TGI [25] was 4.07 µM and the GI50 [26] was 1.9 µM. The TGI [26] was 4.01 µM, the GI50 [27] was 1.73 µM and the TGI [27] was 3.36 µM. For the same compound, the GI50 [28] was 4.95 µM, the TGI [28] was > 100 µM and the GI50 [29] was 0.406 µM. The TGI [29] was 1.51 µM, the GI50 [30] was > 100 µM and the TGI [30] was > 100 µM. It also gave a GI50 [31] of 0.358 µM, a TGI [31] of 1.25 µM and a GI50 [32] of 1.45 µM. The TGI [32] was 3.16 µM, the GI50 [33] was 2.52 µM and the TGI [33] was > 26.6 µM. For the same compound, the GI50 [34] was 83.7 µM, the TGI [34] was > 100 µM and the GI50 [35] was 0.396 µM. The TGI [35] was 1.57 µM.
`CC1(C)C(=O)/C(=C\c2ccccn2)C[C@]2(C)[C@H]3CC[C@@H]4[C@@H](C(=O)/C=C/c5ccccn5)CC[C@@]4(C)[C@]3(C)CC[C@@H]12` was tested, and the GI50 [1] was 1.76 µM, the TGI [1] was 3.23 µM and the GI50 [3] was 1.38 µM. The TGI [3] was 4.26 µM, the GI50 [5] was 2.14 µM and the TGI [5] was 5.82 µM. For the same compound, the GI50 [36] was 3.89 µM, the TGI [36] was > 100 µM and the GI50 [7] was 0.493 µM. The TGI [7] was > 100 µM, the GI50 [37] was 0.486 µM and the TGI [37] was 3.95 µM. For the same compound, the GI50 [38] was 2.02 µM, the TGI [38] was > 28.2 µM and the GI50 [9] was 1.67 µM. For the same compound, the TGI [9] was 3.11 µM, the GI50 [39] was 1.76 µM and the TGI [39] was 4.38 µM. For the same compound, the GI50 [40] was 0.907 µM, the TGI [40] was 3.14 µM and the GI50 [41] was 1.8 µM. The TGI [41] was 3.49 µM, the GI50 [42] was 2 µM and the TGI [42] was 4.63 µM. It also gave a GI50 [43] of 2.01 µM, a TGI [43] of 4.52 µM and a GI50 [44] of 1.64 µM. It also gave a TGI [44] of 5.47 µM, a GI50 [12] of 0.479 µM and a TGI [12] of 1.69 µM. It also gave a GI50 [14] of 0.532 µM, a TGI [14] of 2.53 µM and a GI50 [45] of 0.537 µM. The TGI [45] was > 100 µM, the GI50 [15] was 1.19 µM and the TGI [15] was 2.58 µM. The GI50 [16] was 0.232 µM, the TGI [16] was 0.565 µM and the GI50 [18] was 0.859 µM. The TGI [18] was 2.26 µM, the GI50 [46] was 1.51 µM and the TGI [46] was 2.89 µM. It also gave a GI50 [19] of 0.342 µM, a TGI [19] of 2.11 µM and a GI50 [20] of 0.749 µM. The TGI [20] was 2.08 µM, the GI50 [47] was 1.97 µM and the TGI [47] was 4.2 µM. It also gave a GI50 [21] of 0.787 µM, a TGI [21] of 2.1 µM and a GI50 [48] of 2.41 µM. The TGI [48] was > 100 µM, the GI50 [24] was 1.05 µM and the TGI [24] was 3.46 µM. The GI50 [49] was 0.347 µM, the TGI [49] was > 100 µM and the GI50 [50] was 0.538 µM. The TGI [50] was 1.85 µM, the GI50 [28] was 1.8 µM and the TGI [28] was 4.85 µM. It also gave a GI50 [29] of 0.296 µM, a TGI [29] of 0.885 µM and a GI50 [51] of 1.67 µM. It also gave a TGI [51] of 3.21 µM, a GI50 [31] of 0.263 µM and a TGI [31] of 0.795 µM. It also gave a GI50 [33] of 1.2 µM, a TGI [33] of 2.77 µM and a GI50 [34] of 1.47 µM. It also gave a TGI [34] of 5.93 µM, a GI50 [35] of 0.405 µM and a TGI [35] of 3.89 µM.
With `Cc1cc(C)c(C#N)c(SC(=S)NC(=O)c2ccc(Cl)cc2)n1` the TGI [1] was > 100 µM, the TGI [2] was > 100 µM and the TGI [52] was > 100 µM. For the same compound, the TGI [3] was > 100 µM, the TGI [4] was > 100 µM and the TGI [5] was > 100 µM. The TGI [36] was > 100 µM, the TGI [6] was > 100 µM and the TGI [7] was > 100 µM. The TGI [8] was > 100 µM, the TGI [38] was > 100 µM and the TGI [9] was > 100 µM. The TGI [39] was > 100 µM, the TGI [53] was > 100 µM and the TGI [54] was > 100 µM. For the same compound, the TGI [40] was > 100 µM, the TGI [41] was > 100 µM and the TGI [42] was > 100 µM. For the same compound, the TGI [10] was > 100 µM, the TGI [44] was > 100 µM and the TGI [12] was > 100 µM. For the same compound, the TGI [55] was > 100 µM, the TGI [13] was > 100 µM and the TGI [14] was > 100 µM. The TGI [15] was > 100 µM, the TGI [16] was > 100 µM and the TGI [18] was > 100 µM. The TGI [46] was > 100 µM, the TGI [20] was > 100 µM and the TGI [47] was > 100 µM. For the same compound, the TGI [56] was > 100 µM, the TGI [21] was > 100 µM and the TGI [22] was > 100 µM. For the same compound, the TGI [48] was > 100 µM, the TGI [50] was > 100 µM and the TGI [25] was > 100 µM. The TGI [26] was > 100 µM, the TGI [27] was > 100 µM and the TGI [29] was > 100 µM. For the same compound, the TGI [51] was > 100 µM, the TGI [30] was > 100 µM and the TGI [31] was > 100 µM. The TGI [32] was > 100 µM, the TGI [33] was > 100 µM and the TGI [34] was > 100 µM. The TGI [35] was > 100 µM.
